Measurements as given in patent US20050215433A1, “Aromatic fluid as agricultural solvent” (priority 2004, published 2005).

Columns and labels:
Assay type in all cases: physicochemical
[1] = Kauri Butanol Value, variation of ASTM D-1133-02; settings: 20 grams kauri-butanol solution titrated with the solvent
Protocol: Kauri Butanol Value was determined by a variation of ASTM D-1133-02. In a […] Erlenmeyer flask, 20 grams (±0.1 grams) of kauri-butanol solution was added. The flask was placed in a water bath at 20° C. (±1° C.). A 50-milliliter burette was filled with the solvent being tested. The standardized kauri-butanol solution was titrated with the solvent being tested until the end point was reached. A photocopy of the residence listings from a telephone book was used as the 10 point print sample placed directly beneath the water bath. The tester looked through the liquid at the print to observe the end point. […] The volume in milliliters of solvent added to the flask to produce turbidity was recorded. The kauri-butanol values were calculated using the following formula: Kauri-Butanol value=[65(C−B)/(A−B)]+40 (1) where A is the milliliters of toluene required to titrate 20 grams of kauri-butanol solution (the A factor should be on the certificate of analysis that accompanies the standardized kauri-butanol solution); • B is the milliliters of n-heptane-toluene blend required to titrate 20 grams of kauri butanol solution (the B factor should be on the certificate of analysis that accompanies the standardized kauri-butanol solution); and • C is the milliliters of solvent being tested that are required to titrate 20 grams of kauri-butanol solution. […]

[2] = Solubility of pesticide in the solvent (highest concentration without crystallization); settings: no crystals after seeding; for Solubility in Weight %: Bromoxynil Octanoate: pesticide Bromoxynil Octanoate dissolved in the solvent; for Solubility in Weight %: Chlorpyrifos: pesticide Chlorpyrifos dissolved in the solvent; for Solubility in Weight %: Pendimethalin: pesticide Pendimethalin dissolved in the solvent; for Solubility in Weight %: Permethrin: pesticide Permethrin dissolved in the solvent; for Solubility in Weight %: Trifluralin: pesticide Trifluralin dissolved in the solvent
Protocol: Solubility was determined by adding a predetermined weight of pesticide to a vial and then adding the solvent to within 10 grams to make the appropriate concentrations. Several different concentrations were made. […] The vials were capped and inverted several times to completely dissolve the pesticide. If the pesticide was not completely dissolved, the vials were placed in a beaker filled with warm water until the pesticide dissolved. The water was not heated closer than 30° C. of the flash point of the solvent being tested. The vial was removed from the heated beaker and was left to stand for 3 hours at room temperature. The vial was then placed into a chiller, an ethylene glycol bath, if a lower temperature was desired. […] If crystals were present, the solutions in the vials were diluted, the vials were inverted several times, the vials were either heated or cooled, and the vials were checked for crystals. The vials were allowed to stand for 24 hours and were then rechecked for crystals. If crystals were still absent after 24 hours, one crystal of pesticide was added to the vial (seeding) and the vial was inverted several times to assure the crystal was dissolved. The vial was left to stand for 48 hours and rechecked for crystals. If crystals were present, the solution was diluted further and the previous steps were repeated until no crystals appeared after seeding. […] The test was started again at the beginning with higher concentrations of the pesticide in the solvent.

[3] = Mixed Aniline Point, variation of ASTM D-611-82; settings: 10 milliliters aniline + 5 milliliters sample + 5 milliliters n-heptane
Protocol: For the Mixed Aniline Point, 10 milliliters of aniline was added to a test tube. The test tube was fitted with a suitable stirrer and thermometer. The thermometer was centered in the test tube and some padding was kept at the base of the stand to avoid breakage of the test tube if it slipped. […] Added to the test tube containing aniline was 5 milliliters of sample and 5 milliliters of n-heptane. The test tube was placed into a cooling bath of isopropyl alcohol and dry ice. The mixture was continuously stirred rapidly using 2 inch strokes, avoiding introduction of air bubbles. The mixture was allowed to cool below the first appearance of turbidity and the Mixed Aniline Point was recorded.

Cc1cc(C)cc(C(C)(C)C)c1 [Example 5, 5-ter-Butyl-m-Xylene]
Kauri-Butanol Value [1]: 66 | Solubility in Weight %: Bromoxynil Octanoate [2]: 61 Weight % | Solubility in Weight %: Chlorpyrifos [2]: 65 Weight % | Solubility in Weight %: Pendimethalin [2]: 35 Weight % | Solubility in Weight %: Permethrin [2]: 65 Weight % | Solubility in Weight %: Trifluralin [2]: 50 Weight % | Mixed Aniline Point [3]: 28 °C

CN1CCCC1=O [Example 10, 1-Methyl-2-Pyrrilidinone]
Solubility in Weight %: Bromoxynil Octanoate [2]: 75 Weight % | Solubility in Weight %: Chlorpyrifos [2]: 80 Weight % | Solubility in Weight %: Pendimethalin [2]: 55 Weight % | Solubility in Weight %: Permethrin [2]: 75 Weight % | Solubility in Weight %: Trifluralin [2]: 70 Weight %

CCCCCCCCCCCCc1ccccc1 [Example 17, Dodecyl Benzene]
Kauri-Butanol Value [1]: 36 | Solubility in Weight %: Bromoxynil Octanoate [2]: 40 Weight % | Solubility in Weight %: Chlorpyrifos [2]: 50 Weight % | Solubility in Weight %: Pendimethalin [2]: 20 Weight % | Solubility in Weight %: Permethrin [2]: 45 Weight % | Solubility in Weight %: Trifluralin [2]: 25 Weight % | Mixed Aniline Point [3]: 43 °C

Dipentylindan [Example 12]
Solubility in Weight %: Bromoxynil Octanoate [2]: 25 Weight % | Solubility in Weight %: Chlorpyrifos [2]: 40 Weight % | Solubility in Weight %: Pendimethalin [2]: <15 Weight % | Solubility in Weight %: Permethrin [2]: 50 Weight % | Solubility in Weight %: Trifluralin [2]: <15 Weight %

Monopentylindan [Example 11]
Solubility in Weight %: Bromoxynil Octanoate [2]: 50 Weight % | Solubility in Weight %: Chlorpyrifos [2]: 60 Weight % | Solubility in Weight %: Pendimethalin [2]: 25 Weight % | Solubility in Weight %: Permethrin [2]: 65 Weight % | Solubility in Weight %: Trifluralin [2]: 35 Weight %
